Data set [1] deals with MCF-7 cells. The data set is described as follows: Intracellular localization of fluorescent NAM in GFP / H2B-GFP expressing cells. Type of data set: cell-based. The conditions noted are these: 10 μg/ml NAM. The text has this: (§1) MCF-7 (ATTC HTB-22) and U2OS (ATTC HTB-96) cells were cultivated in RPMI (Invitrogen, #61870)+10% FCS (Invitrogen, #10108-165). Cells were transfected with, respectively, pEGFP-C1 (Clontech) and pBOS-H2B-GFP (Pharmingen, BD Biosciences) using Lipofectamine 2000 (Invitrogen, #11668-027) according to manufacturer's instructions. Stable cells lines expressing GFP (green fluorescent protein) or H2B-GFP (GFP N-terminally fused to histone H2B) were cultivated in, respectively, T25 flasks and in chamber slides (Nunc) to 75% confluency. Cells from T25 flasks were harvested with 0.5 ml of trypsin (Invitrogen, #25300), neutralized with 5 ml of medium (RPMI+10% FCS), stained with 10 μg/ml NAM (N-(9-acridinyl), maleimide, Sigma, #01665) prior to mounting on a microscope slide. Cells grown on chamber slides were directly stained with 10 μg/ml NAM (N-(9-acridinyl)-maleimide). Olympus IX50 was used for microscopy, and images were captured using a Lumenera CCD camera and in-house developed software. GFP and NAM fluorescence were detected using, respectively, U-MNIB3 and U-MNUA2 filter cubes (Olympus).
(§2) Cells expression GFP or H2B-GFP were used for determining the intracellular localization of fluorescent NAM.

The test system of data set [2] is U2OS cells. The data set is described as above. Type of data set: cell-based. The conditions noted are these: 10 μg/ml NAM.
Text: as §1, §2

Data set [3] has as its system S. pombe strain Eg328. Put plainly: NAM and propidium iodide staining of fission yeast. Type of data set: cell-based, Schizosaccharomyces pombe. As to the method: S. pombe strain Eg328, h^90 smt-0 ura4-D18, (ATCC 90720; Styrkarsdottir U et al. Curr. Genet. 23: 184-186, 1993) was grown in a rotary shaker at 29° C. to a density of 1×10^7 cells/ml in EMM minimal medium (Moreno et al., Methods Enzym. 194: 795-823, 1991) supplemented with 10 mM of L-uridine (Sigma, U3750). Cells were collected by centrifuging, washed with sterile water and stained with 10 μg/ml NAM (N-(9-acridinyl)-maleimide, Sigma, #01665) and 10 μg/ml propidium iodide (Applichem, #A2261.9010) prior to mounting on a microscope slide. Olympus IX50 was used for microscopy, and images were captured using a Lumenera CCD camera and in-house developed software. Propidium iodide and NAM fluorescence were detected using, respectively, U-MWG2 and U-MNUA2 filter cubes (Olympus).

For data set [4], the system named is primary murine splenocytes. The data set is described as follows: NAM/PI staining to determine viability of primary murine splenocytes. In kind it is cell-based, C57BL/6 mouse. The conditions noted are these: 90% viable, 10 μL NAM (100 μg/mL DMSO) in 90 μL cells. As to the method:
The spleen from a C57BL/6 mouse was placed in ice-cold PBS and gently ground using the end of a sterile syringe. The suspension was centrifuged at 300 g for 10 minutes; the pellet was resuspended in 1 mL 0.83% NH4Cl to lyse erythrocytes and incubated for 3 minutes on ice. The cells were then added 14 mL PBS and centrifuged at 300 g for 10 minutes. The splenocytes were resuspended in RPMI (Invitrogen, #61870) supplemented with 10% heat-inactivated fetal bovine serum (Invitrogen, #10108-165), 100 U/mL penicillin and 100 μg/mL streptomycin (Invitrogen, #15140-122). The cell clumps were allowed to sediment and were removed by pipetting, and the resulting single cell suspension was used. 90 μL splenocytes (cell density 1.7×10^6, 90% viable determined using the NC-100 NucleoCounter system following the manufacturer's (ChemoMetec A/S) protocol) were added 10 μL NAM (N-(9-acridinyl)maleimide, Sigma, #01665, CAS no. 49759-20-8) dissolved in DMSO (100 μg NAM pr. mL DMSO) and mixed by pipetting. Cells were loaded into a NucleoCassette, containing the DNA stain propidium iodide (PI). The cells were investigated using an Olympus IX50 fluorescence microscope, and images were captured using a Lumenera CCD camera and in-house developed software. PI and NAM fluorescence were detected using, respectively, U-MWG2 (green long pass: 510-550 nm) and U-MNUA2 (UV band pass, 330-385 nm) filter cubes (Olympus).

Data set [5] has as its system bone marrow cells. Put plainly: NAM/PI staining to determine viability of bone marrow derived cells. Type of data set: cell-based, murine. The conditions noted are these: 93% viable, 10 μL NAM (100 μg/mL DMSO) in 90 μL cells. As to the method: The bone marrow cells were harvested aseptically in the laminar flow hood. Briefly, bilateral tibia and femur were aseptically removed, freed of surrounding soft tissue, and placed in a petri dish with 10 mL 70% ethanol. After 2 minutes they were transferred to ice cold PBS. The bone marrow cavity was then flushed with 5 ml cold PBS using a 5-ml syringe with a 27-gauge needle attached, and the cells were collected from each bone. The cells were centrifuged at 300 g for 10 min, the supernatant was discarded, and cells were washed twice. After the second wash the cell pellet was resuspended in RPMI 1640 (Invitrogen, #61870) supplemented with 10% heat-inactivated fetal bovine serum (Invitrogen, #10108-165), 100 U/mL penicillin and 100 μg/mL streptomycin (Invitrogen, #15140-122). 90 μL bone marrow cells (cell density 1.7×10^6, 93% viable determined using the NC-100 NucleoCounter system following the manufacturer's (ChemoMetec A/S) protocol) were added 10 μL NAM (N-(9-acridinyl)maleimide, Sigma, #01665, CAS no. 49759-20-8) dissolved in DMSO (100 μg NAM pr. mL DMSO) and mixed by pipetting. Cells were loaded into a NucleoCassette, containing the DNA stain propidium iodide (PI). […] PI and NAM fluorescence were detected using, respectively, U-MWG2 (green long pass: 510-550 nm) and U-MNUA2 (UV band pass, 330-385 nm) filter cubes (Olympus).

The conditions of data set [6]: Akasaka et al. 1990; cited from earlier work.

Consider 1 molecule from US8697390B2, “Method and kit for examination of cells using N-(9-acridinyl) maleimide (NAM) or using 7-diethylamino-3-((4′-iodacetyl)amino)phenyl)-4-methylkcoumarin (CPI)” (ChemoMetec A/S, priority 2008, dated 2014).

As to `O=C1C=CC(=O)N1c1c2ccccc2nc2ccccc12` [NAM, N-(9-acridinyl)maleimide], the “intracellular localization of fluorescent NAM” value is “found in both the nucleus and cytosol” in data set [1] (GFP-expressing cell lines); “found outside as well as inside the nucleus” in data set [1] (H2B-GFP-expressing cells); “found in both the nucleus and cytosol” in data set [2] (GFP-expressing cell lines); “found outside as well as inside the nucleus” in data set [2] (H2B-GFP-expressing cells). Also, in data set [3] (10 μg/ml NAM), the “intracellular localization of NAM in yeast cells” value is “localizes to both the nucleus and cytosol”. Besides, the “staining of living and dead yeast cells by NAM” value in data set [3] (10 μg/ml NAM and 10 μg/ml propidium iodide) was “NAM stains both living and dead yeast cells”. Moreover, the “staining of cells by NAM versus PI” value is listed as “nearly all the primary spleen cells were stained by NAM; only exception were PI positive cells” in data set [4] and “nearly all the primary bone marrow cells were stained by NAM; again only exception were PI positive cells” in data set [5]. Further, in data set [6], the “fluorescence of NAM upon reaction with sulfite” value is given as “fluoresces strongly”.
